Read-outs that look alike come from different tables or passages of the source.
Legend:
[1] = Pharmacokinetic study of YCHD components and phase II metabolites in normal rats (UHPLC-MS/MS, sulfatase enzymolysis); format: in vivo, rat; conditions: for Cmax / Tmax / CL/F / MRT inf / Vd/F / half-life: rat; for CL/F: read-out: CLz/F; for MRT inf: read-out: MRT (0-∞) (converted); for Vd/F: read-out: Vz/F; for half-life: read-out: t1/2z
Method: To explore the pharmacokinetic properties of YCHD following intragastric administration in rats, a rapid and sensitive method involving the use of UHPLC-MS/MS (Agilent 6460 series, Agilent Technologies, Santa Clara, CA, United States) was developed and validated for the simultaneous quantification of 10 active components of rat plasma. The quantification was conducted in ESI negative ionization mode, and the mass spectrometry conditions were as follows: capillary voltage, 3500 V; gas flow, 12 L/min; nebulizer, 40 psi; gas temperature, 350°C; and delta EMV (-), 400. A 5 μL extraction sample was injected into the column (Agilent SB-C18 column, 2.1 mm × 50 mm, 1.8 μm) and eluted at 0.4 mL/min with a gradient elution of water (with 0.4% v/v formic acid) (A) and acetonitrile (B) (0–3 min, 5–60% B; 3–5 min, 60–90% B; 5–5.1 min, 90–5% B; and re-equilibration for 3 min).
To each 50 μL plasma sample, 10 μL of internal standard solution (paeoniflorin, 1000 ng/mL) and 300 μL of a mixed solution of methanol and acetonitrile (v/v, 1:1; containing 1% formic acid) were added. Subsequently, the solution was vortex mixed for 5 min. After centrifugation at 15,000 rpm for 5 min, the supernatant was transferred completely into a tube, before being evaporated under N2 at 40°C. The residue was then dissolved in 50 μL of 50% methanol–water (v/v, 1:1) through vortexing for 5 min, after centrifugation at 15,000 rpm for 10 min. Finally, 5 μL of the supernatant sample was injected into the UHPLC-MS/MS system for analysis.
The rats were randomly divided into two groups (n = 5 for each group). […] After 24 h, the two groups of rats received a single oral dose of YCHD (12 g/kg). Blood was collected in heparinized tubes at 5, 15, 30, 45, 60, 120, 240, 360, 480, 720, and 1440 min after administration. The blood samples were centrifuged at 4000 rpm for 10 min, and the supernatant plasma was harvested. Plasma samples (50 μL) were immediately processed as outlined in Section “Chromatographic and Mass Spectrometry Conditions.”
Additional plasma samples (50 μL) were enzymatically hydrolyzed with 50 μL of enzyme solution (65.86 mg of sulfatase, dissolved in 2 mL of sodium acetate buffer, pH 5.0) for phase II metabolite quantification, in accordance with our previous study ([Ding et al., 2012]). After being vortex mixed for 5 min, the mixture was incubated at 37°C for 30 min and then returned to room temperature. Subsequently, the samples were processed as outlined in Section “Chromatographic and Mass Spectrometry Conditions” for UHPLC-MS/MS analysis. During routine analysis, each analytical run included six blank plasma samples, a set of calibration samples, a set of QC samples, and unknowns.
All data are presented as mean ± SD. A one-way analysis of variance was used to compare data between two groups using SPSS (Version 21.0). The differences were considered to be statistically significant when p < 0.05 and highly significant when p < 0.01 or p < 0.001. Pharmacokinetic data analysis was performed using DAS 2.1.1 software (Mathematical Pharmacology Professional Committee of China, Shanghai, China).
After sulfatase-aided enzymolysis, all the phase II metabolites could transform into their prototypes, including rhein, emodin, genipin, and capillarisin. The specific contents of the phase II metabolites of these components were detected indirectly by evaluating the content difference of their prototypes in samples after enzymolysis and before enzymolysis
CG = Ca −[MG × (CGG/MGG + CGe/MGe)]
Ca, CGG, and CGe represent the concentration of genipin, genipin-1-β-D-gentiobioside, and geniposide after enzymolysis of sulfatase, respectively. MG, MGG-, and MGe represent the mass of genipin, genipin-1-β-D-gentiobioside, and geniposide, respectively. The pharmacokinetic curves of phase II metabolites are illustrated in Figure 4B.

[2] = Identification of components and metabolites of YCHD in rat plasma, bile, urine and feces (UHPLC/Q-TOF-MS); format: in vivo; conditions: rats, oral YCHD 12 g/kg, urine, feces
Method: After centrifuging at 4000 rpm for 10 min, supernatant plasma was harvested into heparinized tubes and then stored at -20°C for preservation. The rats in the second group (n = 6) were kept individually in metabolic cages to collect urine and feces. […] Subsequently, the rats were orally administered a single dose of YCHD (12 g/kg of body weight). […] For the third group of rats (n = 6), bile duct intubation was implemented, and blank bile samples were collected before administration. After the administration of YCHD at 12 g/kg of body weight, the drug-containing bile samples were collected.
Plasma, bile, and urine samples (200 μL each) were separately precipitated with six times of methanol–acetonitrile mixed solution (v/v, 1:1; containing 1% formic acid). After being vortex mixed for 5 min and centrifuged at 15,000 rpm for 5 min at 4°C, the supernatant was separated into another clean tube and dried under a gentle stream of nitrogen at 45°C. Subsequently, the residue was reconstituted in 100 μL of 50% methanol–water (v/v) and then vortex mixed for 10 min. After another round of centrifugation at 15,000 rpm for 5 min at 4°C, 5 μL of the supernatant was analyzed by UHPLC-MS/MS. A 0.5 g sample of naturally dried feces was supplemented with 2 mL of 80% methanol–water (v/v) and then ultrasonically extracted for 30 min at 4°C. After being centrifuged at 15,000 rpm for 10 min, the supernatant was dried under a gentle stream of nitrogen at 45°C. Finally, the residue was reconstituted in 1 mL of 50% methanol–water (v/v) and then vortex mixed for 10 min. After another round of centrifugation at 15,000 rpm for 5 min at 4°C, 5 μL of the supernatant sample was injected into the UHPLC-MS/MS system for analysis.
Separations were conducted on an Agilent SB-C18 column (2.1 mm × 50 mm, 1.8 μm) of a UHPLC/Q-TOF-MS system (Waters, Corp., Milford, MA, United States) maintained at 40°C.
A Synapt G2 quadrupole time-of-flight (Q/TOF) MS/MS system (Waters, Corp., Manchester, United Kingdom) equipped with an electrospray ionization (ESI) interface was operated in negative ionization mode and controlled by MassLynx software (Version 4.1). The optimized conditions for maximum detection of metabolites were as follows: the capillary voltage was set at 3.0 kV, extraction cone voltage was set at 10 and 15 V, source temperature was maintained at 120°C, and desolvation temperature was maintained at 450°C. […] An MS^E approach using a dynamic ramp of collision energy was also applied at two (low and high collision energies) scan functions. The following parameters were set: Function 1 (low energy)—mass scan range, 100–1000; scan time, 0.25 s; interscan delay, 0.05 s; collision energy, 4 V. Function 2 (high energy)—mass scan range, 100–1000; scan time, 0.2 s; interscan delay, 0.05 s; collision energy ramp, 10–30 V. Data were acquired using Masslynx^TM (Version 4.1. Waters, Crop., Milford, MA, United States), and Metabolynx^TM (Waters, Crop., Milford, MA, United States) was applied for post-acquisition data processing.

[3] = Control group (normal rats), single oral YCHD 12 g/kg, plasma
[4] = Sprague Dawley, in vivo, Control group (normal rats), single oral YCHD 12 g/kg, plasma
[5] = in vivo, Control group (normal rats), single oral YCHD 12 g/kg, plasma
[6] = Sprague Dawley, Control group (normal rats), single oral YCHD 12 g/kg, plasma
[7] = Sprague Dawley, plasma, po, 12 g/kg, in normal and cholestatic rats after oral administration of YCHD
[8] = plasma, po, 12 g/kg, Control group (normal rats), single oral YCHD 12 g/kg, plasma

Structure (SMILES) | AUC(0-∞) [1, 3] | Ka [1, 3] | Vd/F [1, 5] | half-life [1, 5] | Source (biological samples in which the compound was identified) [2] | Vd/F [1, 6] | half-life [1, 6] | Tmax [1, 5] | Cmax [1, 3] | CL/F [1, 3] | MRT inf [1, 3] | Tmax [1, 7] | Tmax [1, 8] | half-life [1, 3] | further results
COC(=O)C1=COC(OC2OC(CO)C(O)C(O)C2O)C2C(CO)=CC(O)C12 (centres unmarked) [Scandoside methyl ester] | 233687.2 ± 127559.1 µg·min/L | 477.5 ± 133.9 min⁻¹ | 62 ± 30.8 L/kg | 3.82 ± 1.76 h | Plasma, bile, urine, feces |  |  |  |  |  |  |  |  |  | Cmax [1, 4]: 127 ± 8.9 ng/mL; Tmax [1, 4]: 0.35 h; CL/F [1, 4]: 184 ± 33 mL/min/kg; MRT inf [1, 4]: 6.08 h
O=C(O)C1=CO[C@@H](O[C@@H]2O[C@H](CO)[C@@H](O)[C@H](O)[C@H]2O)[C@@H]2C(CO)=CC[C@H]12 [Geniposidic acid] | 1374849.8 ± 734718.1 µg·min/L | 11255.3 ± 11024.4 min⁻¹ |  |  | Plasma, urine, feces | 8.6 ± 3.2 L/kg | 3.23 ± 0.755 h | 4.4 h | 449 ± 34.2 ng/mL | 30 ± 4 mL/min/kg | 5.93 h |  |  |  | 
CC(=O)c1ccc(O)cc1 [4-hydroxyacetophenone, 4-Hydroxyacetophenone] | 192358.2 ± 102858.3 µg·min/L | 406.1 ± 333.9 min⁻¹ |  |  | Plasma, bile, urine, feces |  |  |  | 1580 ± 133 ng/mL |  | 4.82 h | ≤ 0.45 h | 0.25 h | 13.8 ± 13.6 h | 
COC(=O)C1=CO[C@@H](O[C@@H]2O[C@H](CO)[C@@H](O)[C@H](O)[C@H]2O)[C@@H]2C(CO)=CC[C@H]12 [Geniposide] | 384279.8 ± 184237.0 µg·min/L | 702.9 ± 413.6 min⁻¹ | 21.1 ± 12 L/kg | 1.9 ± 0.765 h | Plasma, bile, urine, feces |  |  | 0.3 h |  |  |  |  |  |  | Tmax ([1]; Sprague Dawley, in vivo, 12 g/kg, in normal and cholestatic rats after oral administration of YCHD): ≤ 0.45 h; Cmax [1, 5]: 524 ± 59.4 ng/mL; CL/F [1, 5]: 122 ± 22 mL/min/kg; MRT inf [1, 5]: 3.36 h
O=C(O)c1cc(O)c2c(c1)C(=O)c1cccc(O)c1C2=O [Rhein] | 874792.3 ± 503744.0 µg·min/L | 4443.6 ± 454.1 min⁻¹ |  |  | Plasma, bile, urine, feces |  |  |  | 3040 ± 397 ng/mL | 41 ± 6 mL/min/kg | 2.01 h | ≤ 0.45 h | 0.25 h | 1.06 ± 0.00833 h | Vd/F [1, 3]: 3.79 ± 0.53 L/kg
COC(=O)C1=CO[C@@H](O[C@@H]2O[C@H](CO[C@@H]3O[C@H](CO)[C@@H](O)[C@H](O)[C@H]3O)[C@@H](O)[C@H](O)[C@H]2O)[C@@H]2C(CO)=CC[C@H]12 [genipin-1-β-D-gentiobiodide, Genipin-1-β-D-gentiobiodide] | 38557.0 ± 20175.1 µg·min/L | 95.5 ± 16.2 min⁻¹ |  |  | Bile, urine | 170 ± 52.3 L/kg | 1.93 ± 0.538 h |  | 106 ± 3.9 ng/mL | 1040 ± 56 mL/min/kg | 2.13 h | ≤ 0.45 h | 0.35 h |  | 

— publication PMC5962729 (Frontiers in Pharmacology, 2018)
